Test: Experimental gradient RP-LC retention time of peptides (LC-ESI-MS/MS)
Format: physicochemical
Conditions: Table 1, model peptides; gradient RP-LC, XTerra MS C18 3.5 μm 2.1 × 100 mm, 0-60% ACN with 0.1% TFA, linear 90 min, 200 μL/min, 20°C, ESI-MS/MS, at peak intensity maximum
Method: The chromatographic analysis was performed on C-18 analytical column: XTerra MS C18 3.5 μm (2.1 × 100 mm) column (Waters, Milford, MA, USA).
The mobile phase consisted of two solvents (A and B) mixed on-line. Solvent A was 0.1% aqueous (water was MS-grade) solution of trifluoroacetic acid (TFA) (Sigma-Aldrich, Steinheim, Germany) and solvent B was acetonitrile (ACN) (MS-grade, Sigma-Aldrich, Steinheim, Germany) containing 0.1% TFA. The applied linear gradient time was 90 min, from 0% B to 60% B. The flow rate was 200 μL/min. The injection volume was 10 μL. The LC-MS apparatus was equipped with thermostated column oven and surveyor autosampler controlled at 20°C (Thermo Finnigan, San Jose, CA, USA), a quaternary gradient Surveyor MS pump (Thermo Finnigan, San Jose, CA, USA) with a diode array detection (DAD) system, and LTQ linear ion trap MS system with ESI ion source controlled by Xcalibur software 1.4 (Thermo Finnigan, San Jose, CA, USA).
The MS/MS analysis was performed on Finnigan LTQ instrument (Thermo Finnigan, San Jose, CA, USA). Mass spectra were generated in positive ion mode under constant instrumental conditions: source voltage 4.62 kV, capillary voltage 40.97 V, sheath gas flow rate 39.99 (arbitrary units), auxiliary gas flow 10 (arbitrary units), sweep gas flow 0.95 (arbitrary units), capillary temperature 219.96°C, and tube lens voltage 250.43 V. MS/MS spectra, obtained by CID (collision-induced dissociation) in the linear ion trap, were performed with an isolation width 3Da (m/z); the activation amplitude was 35% of ejection RF amplitude that corresponds to 1.58 V.
The experimental retention times of the peptides (tR exp) were determined at peak intensity maximum. The m/z values measured manually for the most intense peaks in acquired MS/MS spectra were automatically searched against the protein database (*fasta) using the Sequest Algorithm, incorporated into Bioworks 3.0 (Thermo Finningan, San Jose, CA, USA). The *fasta format for each protein was downloaded from Expasy (http://www.expasy.org/sprot/).

Substance	tR exp [min]
AAFTECCQAADK [model peptide from tryptic digest of model protein 6]	19.31
CCAAADPHECYAK [model peptide from tryptic digest of model protein 6]	16.98
HIIVACEGNPYVPVHFDASV [model peptide from tryptic digest of model protein 7]	32.15
NECFLQHK [model peptide from tryptic digest of model protein 6]	19.67
QHMDSSTSAASSSNYCNQMMK [model peptide from tryptic digest of model protein 7]	20.46
TCVADESAENCDK [model peptide from tryptic digest of model protein 6]	15.32
VHTECCHGDLLECADDR [model peptide from tryptic digest of model protein 6]	22.86
VHTECCHGDLLECADDRADLAK [model peptide from tryptic digest of model protein 6]	24.98
YICENQDSISSK [model peptide from tryptic digest of model protein 6]	18.06
YPNCAYK [model peptide from tryptic digest of model protein 7]	16.78

Same assay, conditions: Table 2, test peptides from model proteins; gradient RP-LC, XTerra MS C18, 0-60% ACN with 0.1% TFA in 90 min, 200 μL/min, 20°C, ESI-MS/MS

Substance	tR exp [min]
ETCFAEEGKK [test peptide from tryptic digest of model protein 6]	16.58
NVACK [test peptide from tryptic digest of model protein 7]	8.38

Same assay, conditions: Table 5, Bacillus subtilis proteome peptides, one peptide, Xcorr below 1.5; gradient RP-LC, XTerra MS C18, 0-60% ACN with 0.1% TFA in 90 min, 200 μL/min, 20°C, ESI-MS/MS

Substance	tR exp [min]
AQLSEKKGADGYL	26.46
DGITDVL	93.5
DGWKVCLGKVGSMDAHKVVAAIETASKKSG	37.72
ELSASMG	18.33
EPIQSFFQID	51.92
GIIAAYG	89.29
GQEQLIPPLIL	81.34
HGGSLSAPAIH	97.03
IDFPTNITMD	96.80
IGLLIFLP	93.97
IHTLEHLLAFTI	81.04
KIDKSIFPGIQGGPLMH	12.03
LAAGISTI	92.62
LTELQVRHII	48.06
NRAVGFISFVI	58.59
PIITVAKEAWPTL	83.17
PQTPVP	80.37
TGALIVYTSADSVLQIAAHEEVVPLEE	52.12

Same assay, conditions: experimental gradient HPLC retention time (LC-ESI-MS/MS); Table 4 test peptides

Substance	tR exp [min]
AAEMAVARQNEQKVKK	29.44
DIMSPSR	14.30
DRVFIAPVGGGPR	29.82
EAEELIPNVTTAAVK	29.18
EGTVIKELIGAGQLDEK	29.49
ELQEKFLIPAVEQKK	29.27
EVMIEGVLSVLEGQAPK	29.51
GHNPGQPEPLSGSK	17.05
GNQVSENLQQAAR	20.52
HSSDEEPFSALAFK	33.16
IDIALESKK	18.04
IDNLSYYIEQEYK	30.89
INIMSAR	14.23
LALDLESKK	18.01
LEIASEFGVNLGADTTSR	33.12
LIDKHKKYVYHRINK	29.00
LNSLDSR	14.29
NIAEMVK	14.25
NLLFAAR	14.27
QDIPIEARMNEIVHSLK	29.33
SGETEDSTIADIAVATNAGQIK	30.05
SGSIESIDVSLTDLR	33.05
SHTGKAAVLNR	24.54
VVVSVNTDQDQAQAQSQDGED	19.37
